The values that follow come from ChEMBL document CHEMBL1781897, “Synthesis, biological evaluation of prenylflavonoids as vasorelaxant and neuroprotective agents” (Bioorg Med Chem Lett, 2009).

Test [1] deals with Aorta. Kind of test: Vasorelaxant activity in rat aortic ring assessed as inhibition of phenylephrine-induced contraction. It counts as functional, tissue-based.
The subject of test [2] is Aorta. Kind of test: Vasorelaxant activity in rat aortic ring assessed as inhibition of phenylephrine-induced contraction relative to control. Format: functional.
In test [3] the test system is PC-12. Briefly: Neuroprotective activity against oxygen-glucose deprivation-induced cell injury in rat PC12 cells assessed as cell viability at 1 uM. It counts as functional. The note with it: read-out: Activity.
The subject of test [4] is PC-12. Kind of test: Neuroprotective activity against oxygen-glucose deprivation-induced cell injury in rat PC12 cells assessed as cell viability. It counts as functional, cell-based.
Test [5] relates to PC-12. Briefly: Neuroprotective activity against oxygen-glucose deprivation-induced cell injury in rat PC12 cells assessed as cell viability at 30 uM. As to conditions: read-out: Activity. Format: functional.

The structures appear in SMILES notation.

For `COc1cc([C@@H]2CC(=O)c3c(O)cc(O)cc3O2)ccc1O` (racemic) [HOMOERIODICTYOL], the EC50 (as a rule, the concentration needed to bring the measured effect to its halfway point) in test [1] was 82 µM. For the same compound, the Emax (as a rule, the maximal effect, on the per cent scale that the assay sets) in test [2] turned out to be 74.9%. For the same compound, in test [3], the viability at 1 µM was 89.1%.

For `CC(C)=CCc1c(O)cc(O)c(C(=O)/C=C/c2ccc(O)cc2)c1O` [DEMETHYLXANTHOHUMOL], the EC50 in test [1] amounted to 8.5 µM. Further, the Emax in test [2] stood at 81.4%. Besides, the viability at 1 µM in test [3] was 86.7%.

In the case of `CC(C)=CCc1c(O)cc(O)c2c1O/C(=C\c1ccc(O)cc1O)C2=O`, the maximal effect (Emax) in test [2] stood at 30.5%. Further, the viability at 1 µM in test [3] was 90.4%.

Turning to `CC(C)=CCc1c(O)cc(O)c2c(=O)cc(-c3ccc(O)c(O)c3)oc12`, in test [2], the Emax is 62.5%. Moreover, the viability at 1 µM in test [3] was 91.5%.

Take `CC(C)=CCc1c(O)cc(O)c2c(=O)cc(-c3ccc(O)cc3O)oc12`: the EC50 in test [1] was 176 µM. Further, the Emax in test [2] turned out to be 91.5%. For the same compound, the viability at 1 µM in test [3] amounted to 93.5%. Further, in test [4], the Activity result was “Dose-dependent effect”.

Turning to `CC(C)=CCc1c(O)cc(O)c2c1O/C(=C\c1ccc(O)cc1)C2=O`, the Emax in test [2] was 74.5%. In addition, the viability at 1 µM in test [3] came out at 81.6%.

As to `CC(C)=CCc1c(O)cc(O)c2c(=O)cc(-c3ccc(O)c(O)c3O)oc12`, the viability at 1 µM in test [3] stood at 88.6%.

On to `COc1cc(C2CC(=O)c3c(O)cc(O)c(CC=C(C)C)c3O2)ccc1O` (centres undefined), for which, in test [3], the viability at 1 µM turned out to be 94%. In addition, the Activity result in test [4] was “Dose-dependent effect”.

As for `CC(C)=CCc1c(O)cc(O)c2c1OC(c1ccc(O)cc1O)CC2=O` (racemic), the half-maximal effective concentration (EC50) in test [1] was determined as 9.3 µM. Further, the Emax in test [2] is 94.9%. Moreover, the viability at 1 µM in test [3] turned out to be 94.8%. Further, the Activity entry in test [4] is “Dose-dependent effect”.

For `CC(C)=CCc1c(O)cc(O)c2c1OC(c1cccc(Br)c1)CC2=O` (centres undefined), in test [3], the viability at 1 µM came to 88.1%.

For the compound `O=c1c(O)c(-c2ccc(O)c(O)c2)oc2cc(O)cc(O)c12` [QUERCETIN], the Emax in test [2] is 91.3%.

`COc1cc(C2CC(=O)c3c(O)cc(O)c(CC=C(C)C)c3O2)cc(OC)c1OC` (centres undefined): the EC50 in test [1] stood at 25 µM. For the same compound, the maximal response (Emax) in test [2] came out at 66.3%. Moreover, in test [3], the viability at 1 µM was 89.1%.

For `CC(C)=CCc1c(O)cc(O)c2c1OC(c1ccc(O)c(O)c1O)CC2=O` (centres undefined), in test [2], the maximal response (Emax) was 69.7%. In addition, in test [3], the viability at 1 µM was 90.3%.

Take `CC1=NN(c2ccccc2)C(=O)C1` [EDARAVONE]: the viability at 30 µM in test [5] was determined as 93.2%.

Regarding `CC(C)=CCc1c(O)cc(O)c2c1OC(c1ccc(O)cc1)CC2=O` (centres undefined) [SOPHORAFLAVANONE B], in test [1], the half-maximal effective concentration (EC50) turned out to be 72.7 µM. The maximal response (Emax) in test [2] was 101%. Also, the viability at 1 µM in test [3] was 89.3%.
